In patent publication US20180015101A1, “COMPOSITIONS AND METHODS FOR ANTIGEN-SPECIFIC TOLERANCE” (INSERM (INSTITUT NATIONAL DE LA SANTÉ ET DE LA RECHERCHE …, priority 2014, published 2018):

Columns and labels:
HO-1^+ MoDCs = test: MoDC recruitment in draining LN after intradermal injection; type: in vivo; settings: given as dermal migration inhibitor in CoPP-injected mice
Description: Isolation of murine APCs and co-culture with autoreactive CTLs: For MHC-II^+ and F4/80^+ cells isolation, skin-draining LNs were removed 24 hours after intradermal injection in the back or in the ear. Single-cell suspensions were prepared by enzymatic lymph node disaggregation with collagenase D (Sigma-Aldricht). Cells were stained with anti-MHC-II-FITC (clone AF6-120.1, BD pharmingen) or anti-F4/80-PE (clone BM8, eBioscience) monoclonal antibodies as primary labeling reagent and respectively with anti-FITC or anti-PE microbeads (Miltenyi) as secondary reagent. After magnetic separation, we checked that purity was >82% for CD11b^+CD11c^lowLy6C^highF4/80^+ cells in CoPP-OVA immunized mice. These cells were co-cultured with autoreactive CTLs (respectively 1:1 and 1:5 APC to CTL ratio) overnight for velocity measurement and transwell migration assay. […]

NOD mice = settings: administered systemically before disease onset; cited from earlier work
C57BL/6 mice = test: Experimental Autoimmune Encephalomyelitis (EAE), prophylactic and curative intradermal treatment; type: in vivo; settings: for protection against EAE (clinical score): i.d., low dose CoPP 0.2 mg/mouse, preventive or curative settings
Description: Experimental Autoimmune Encephalomyelitis (EAE) induction: Briefly, C57BL/6 were immunized by a subcutaneous injection of emulsified complete freund adjuvant (CFA, sigma aldrich) complemented with mycobacterium tuberculosis (400 μg, BD) and MOG35-55 peptide (200 μg, genecust). Pertussis toxin is injected (200 ng i.v, VWR) at the time of immunization and two days later. Clinical signs of EAE were evaluated daily and scored as follows: 0, normal; 1, limp tail; 2, partial paralysis of the hind limbs; 3, complete paralysis of the hind limbs; 4, hind-limb paralysis and forelimb weakness; 5, moribund or deceased
[…] Same injections were repeated twice at three days interval. For curative treatment, mice were treated with one injection in each ear at the EAE onset (i.e., mean clinical score, 0.72±0.1) with the same quantity than in prophylactic treatment. Same injections were repeated twice at three days interval after EAE onset.

Rip-OVA^high mice = test: Diabetes induction in Rip-OVAhigh mice by transfer of autoreactive CTLs after immunization; type: in vivo; settings: intradermal injection one day before CTL transfer
Description: Intradermal immunization of mice and diabetes induction: Eight to ten week-old Rip-OVAhigh mice received two intradermal injections in the back with 70 μg of CoPP (Livchem) prepared as described and 20 μg of endofree ovalbumin (Hyglos) in 10 μl. One hundred and forty micrograms of MnPP (Livchem) prepared as described (18) was added to the preparation for HO-1-inhibition experiments. Forty micrograms of Alexa Fluor® 488 ovalbumin (Molecular Probes) has been used for phagocytosis assay. For diabetes induction, mice were injected i.v. the following day with 0.5×10^5 autoreactive cytotoxic OT-I CD8^+ T cells (purity >95%) previously co-cultured or not with MHC-II^+ or F4/80^+ cells during 4 hours. […]
Histological analysis: For evaluation of insulitis, pancreata were snap-frozen and cryosections (8 μm thick) were acetone-fixed. Sections were stained with H&E (Thermo Electron Corp.), and the degree of insulitis was evaluated microscopically.
Light-sheet-based fluorescent microscopy analysis: Animals were perfused with PFA 4% and washed with PBS. […] For GFP fluorescence imaging, we used a 525/50 band pass filter on the turret. […] The images stacks are analyzed using ImageJ software (Rasband, W. S., ImageJ, U. S. National Institutes of Health, Bethesda, Md., USA, http://imagej.nih.gov/ij/, 1997-2012).

[1] = tested on: Human monocytic THP-1 cells; test: HO-1 expression in THP-1 cells after HO-1 inducer treatment; type: cell-based; settings: 16 hours in vitro
Description: Human THP-1 monocytic cell line and co-culture with CD8^+ T cells clones: THP-I cells were cultured in RPMI 1640 (Gibco) supplemented with 10% fetal bovine serum (Eurobio), 1% glutamine (Gibco), 50 IU/mL penicillin 50 IU/mL streptomycin (Gibco) and 200 nM PMA (Sigma-Aldrich) under standard conditions as previously described (36).
(§1) Flow Cytometry: Single-cells suspensions of spleen and lymph nodes were stained with anti-CD8 (clone 53-6.7), anti-CD45.1 (clone A20), anti-CD49b/α2 (clone DX5), anti-CD49d/α4 (clone RI-2), anti-ITGAE/αE (clone M290), anti-CD29/β1-integrin (clone Ha2/5), anti-CD18/β2-integrin (clone C71/16), anti-CD61/β3-integrin (clone 2C9.G2), anti-CD62E (clone 10E9.6), anti-CD62L (clone Mel14), anti-PSGL1 (clone 2PH1), anti-ICAM-1 (clone 3E2), anti-VCAM-1 (clone 429), anti-CD183/CXCR3 (clone CXCR3-173), anti-CD195/CCR5 (clone C34-3448), anti-GITR (clone DTA-1), anti-PD-1 (clone J43), anti-CD28 (clone 37.51), anti-CD38 (clone 90), anti-CD69 (clone H1.2F3), anti-CD44 (clone IM7), anti-CD107b (clone ABL-93) antibodies. All antibodies are from BD Biosciences. Intracellular staining of HO-1 using BD cytofix/cytoperm kit following manufacturers' recommendations were performed with anti-HO-1 antibody (clone HO-1-2, abcam) as primary labeling reagent and with anti-anti-IgG1 (clone MOPC-21) monoclonal antibody conjugated to a fluorochrome as secondary labeling reagent.

HO-1 [2] = test: HO-1 expression in MHC-II+ cells of draining lymph nodes after intradermal injection (FACS); type: in vivo, mice
Description: Isolation of murine APCs and co-culture with autoreactive CTLs: For MHC-II^+ and F4/80^+ cells isolation, skin-draining LNs were removed 24 hours after intradermal injection in the back or in the ear. Single-cell suspensions were prepared by enzymatic lymph node disaggregation with collagenase D (Sigma-Aldricht). Cells were stained with anti-MHC-II-FITC (clone AF6-120.1, BD pharmingen) or anti-F4/80-PE (clone BM8, eBioscience) monoclonal antibodies as primary labeling reagent and respectively with anti-FITC or anti-PE microbeads (Miltenyi) as secondary reagent. After magnetic separation, we checked that purity was >82% for CD11b^+CD11c^lowLy6C^highF4/80^+ cells in CoPP-OVA immunized mice. These cells were co-cultured with autoreactive CTLs (respectively 1:1 and 1:5 APC to CTL ratio) overnight for velocity measurement and transwell migration assay.
Intradermal immunization of mice and diabetes induction: Eight to ten week-old Rip-OVAhigh mice received two intradermal injections in the back with 70 μg of CoPP (Livchem) prepared as described and 20 μg of endofree ovalbumin (Hyglos) in 10 μl. One hundred and forty micrograms of MnPP (Livchem) prepared as described (18) was added to the preparation for HO-1-inhibition experiments. Forty micrograms of Alexa Fluor® 488 ovalbumin (Molecular Probes) has been used for phagocytosis assay. For diabetes induction, mice were injected i.v. the following day with 0.5×10^5 autoreactive cytotoxic OT-I CD8^+ T cells (purity >95%) previously co-cultured or not with MHC-II^+ or F4/80^+ cells during 4 hours.
as §1

Human PBMC = test: HO-1 expression in human PBMC after in vitro hemin treatment; type: cell-based; settings: 4 hours in vitro
Description: Human and non-human primate PBMC: Human PBMCs were obtained at the Etablissement Français du Sang in Nantes from blood of healthy donors. After Ficoll-Paque density gradient centrifugation (GE Healthcare), PBMC were cultured in RPMI 1640 (Gibco) supplemented with 10% fetal bovine serum (Eurobio), 1% glutamine (Gibco), 50 IU/mL penicillin 50 IU/mL streptomycin (Gibco) in presence or not of CoPP or hemin during 4 hours.
as §1, with “Intracellular staining of HO-1 using BD cytofix/cytoperm kit following manufacturers' recommendations were performed with anti-HO-1 antibody (clone HO-1-2, abcam) as primary labeling reagent and with anti-anti-IgG1 (clone MOPC-21) monoclonal antibody conjugated to a fluorochrome as secondary labeling reagent.” left out

HO-1 [3] = test: HO-1 induction in lymph nodes of baboons after intradermal Normosang; type: in vivo, Baboons (Papio anubis); settings: 24 h after intradermal 6.25, 12.5 or 25 mg
Description: Non-Human primates: Baboons (Papio anubis, from the CNRS Primatology Center, Rousset, France) were negative for all quarantine tests. Animals were housed at the large animal facility of our laboratory following the recommendations of the Institutional Ethical Guidelines of the Institut National de la Santé Et de la Recherche Médicale, France. All experiments were performed under general anaesthesia with Zoletil (Virbac, Carron, France). Three Baboons were injected intradermally in the inguinal fold with respectively 6.25 mg (500 μL), 12.5 mg (500 μL) or 25 mg (1 mL) of clinical hemin (Normosang®). A non-treated baboon has served as control. Inguinal lymph nodes were surgically removed 24 hours after intradermal injection. Single-cell suspensions for flow cytometry analysis were prepared by enzymatic lymph node disaggregation with Collagenase D (Sigma-Aldricht).
Intradermal immunization with Normosang®: Three Baboons were injected intradermally in the inguinal fold with respectively 6.25 mg (500 μL), 12.5 mg (500 μL) or 25 mg (1 mL) of clinical hemin (Normosang®). A non-treated baboon has served as control.
Inguinal lymph nodes were surgically removed 24 hours after intradermal injection. Single-cell suspensions for flow cytometry analysis were prepared by enzymatic lymph node disaggregation with Collagenase D (Sigma-Aldricht). […]

[4] = after CoPP intradermal injection

In the case of O=C(O)CCCCCCC1C(=O)NC(=O)N1CCC(O)C1CCCCC1 (stereo not shown) [BW245c], the “effect on MoDC recruitment” value (HO-1^+ MoDCs) is reported as “did not affect”.

For [C-]#[O+] [CO, carbon monoxide], the “effect on T1D” value (NOD mice) is given as “inhibit T1D in NOD mice”.

For C=CC1=C(C)c2cc3[n-]c(cc4nc(cc5[n-]c(cc1n2)c(C)c5CCC(=O)[O-])C(CCC(=O)[O-])=C4C)c(C)c3C=C.[Co+2].[H+].[H+] [CoPP, Cobalt protoporphyrin], the “effect on T1D” value (NOD mice) is given as “inhibit T1D in NOD mice”, the “protection against EAE (clinical score)” value (C57BL/6 mice) is given as “not sufficient to tolerize against EAE” and the “MOG-specific CD4+ T-cell proliferation capacity” value (C57BL/6 mice; vs untreated mice) is given as “same proliferation capacity”. The diabetes development (Rip-OVA^high mice) was “protection was not observed”, the “HO-1 expression in THP-1 cells” value [1] was “dose-dependently expressed HO-1” and the “duration of HO-1 induction” value (HO-1 [2]; [4]) was “at least 72 hours”. The “earliest time HO-1 induction observed” value (HO-1 [2]; [4]) was no more than 24 h, the “localisation of HO-1 induction” value (HO-1 [2]; intradermal injection) was “restricted to the draining LNs” and the “increase of HO-1 expression in MHC-II+ cells in draining lymph nodes” value (HO-1 [2]; intradermal injection, RIP-OVAhigh mice) was 5.8 fold.

In the case of “MOG35-55: myelin oligodendrocyte glycoprotein (MOG) 35-55 peptide, cognate antigen in EAE (MEVGWYRSPFSRVVHLYRNGK; UniProt Q61885 63-83, looked up, fragment)”, the “protection against EAE (clinical score)” value (C57BL/6 mice) is reported as “protection was not observed”.

With ovalbumin the diabetes development (Rip-OVA^high mice) was “protection was not observed”.

With “protoporphyrin IX containing a ferric iron ion (Heme B) with a chloride ligand [hemin]” the “HO-1 expression in THP-1 cells” value [1] was “dose-dependently expressed HO-1”, the “HO-1 expression in human MHC-II+CD11clowCD14+ cells” value (Human PBMC) was “induced highest HO-1 expression” and the “frequency of HO-1+ cells in draining LN” value (HO-1 [3]) was “dose-dependently increased”.
